The record followed here is publication PMC6522510 (Nature Communications, 2019).

SMILES strings stand for the structures. Read-outs that look alike come from different tables or passages of the source.

Holding throughout (set-up): species or system AML cell lines (8); Primary HTS, single concentration about 10 uM, Cell Titer Glo viability; log10 luminescence, per cent inhibition relative to cycloheximide control
Conditions in all cases: 72 h, relative to cycloheximide control, log10 luminescence, inhibitor

Experiment [1] deals with ML-2.
The test system of experiment [2] is MV4-11.
Experiment [3] has as its system U937.
In experiment [4] the test system is CMK.
Experiment [5] relates to M07e.
Experiment [6] relates to CHRF288-11.
For experiment [7], the system named is CMS.
Experiment [8] relates to MOLM-13.

Take `COc1cc2c(cc1O)CC[C@@H]1[C@@H]2CC[C@]2(C)[C@@H](O)CC[C@@H]12` [SJ000288002-4, 2-METHOXYESTRADIOL | 2-METHOXYESTRADIOL | PANZEM | PULMOLAR | 2-ME | 2-MEOE2 | 2ME2 | NSC-659853 | | 2-METHOXYESTRADIOL | 2-ME | 2-MEOE2 | 2ME2 | NSC-659853 | | 2-METHOXYESTRADIOL (2-MEOE2)]: in experiment [1] (ML-2 %inh, 10 µM), the ML-2 %inh turned out to be 66.58%. Moreover, in experiment [2] (MV4-11 %inh, 10 µM), the MV4-11 %inh is 99.75%. In addition, the U937 %inh in experiment [3] (U937 %inh, 10 µM) was 95.83%. For the same compound, in experiment [4] (CMK %inh, 10 µM), the CMK %inh is 133.7%. The M07e %inh in experiment [5] (M07e %inh, 10 µM) was determined as 111%. The CHRF288-11 %inh in experiment [6] (CHRF288-11 %inh, 10 µM) is 60.77%. Further, the CMS %inh in experiment [7] (CMS %inh, 10 µM) came to 122.6%. In experiment [8] (MOLM-13 %inh, 10 µM), the MOLM-13 %inh is 91.74%.
In the case of `O=C1NC(=NCCc2ccccc2F)S/C1=C\c1ccc2ncccc2c1` [SJ000580983-1], the ML-2 %inh in experiment [1] is 8.671%. The MV4-11 %inh in experiment [2] is recorded as -0.6215%. Besides, the U937 %inh in experiment [3] was 4.047%. In addition, the CMK %inh in experiment [4] was found to be 41.89%. Further, in experiment [5], the M07e %inh amounted to 0.4729%. Further, the CHRF288-11 %inh in experiment [6] is reported as 13.58%. Further, the CMS %inh in experiment [7] is 2.155%. Also, in experiment [8], the MOLM-13 %inh came to 4.839%.
On to `CNc1ncc2cc(Oc3ccc(F)cc3F)c(=O)n(C)c2n1` [SJ000581177-1], for which the ML-2 %inh in experiment [1] was 0.6187%. In addition, the MV4-11 %inh in experiment [2] is reported as 2.766%. For the same compound, in experiment [3], the U937 %inh stood at 2.229%. For the same compound, the CMK %inh in experiment [4] is listed as 4.145%. In experiment [5], the M07e %inh is -0.008012%. Further, the CHRF288-11 %inh in experiment [6] was -5.721%. In experiment [7], the CMS %inh is reported as -2.096%. Besides, the MOLM-13 %inh in experiment [8] was 3.528%.
As to `NC(CCC(=O)NOC(=O)c1ccccc1)C(=O)N1CCCC1` (stereo not shown) [SJ000773150-1], the ML-2 %inh in experiment [1] turned out to be 1.208%. Besides, in experiment [2], the MV4-11 %inh is -0.09979%. In addition, the U937 %inh in experiment [3] is -0.8595%. Besides, the CMK %inh in experiment [4] is listed as -2.389%. For the same compound, the M07e %inh in experiment [5] was 3.014%. Also, the CHRF288-11 %inh in experiment [6] is reported as -3.643%. Further, the CMS %inh in experiment [7] is on record as -1.088%. Also, in experiment [8], the MOLM-13 %inh worked out at 1.337%.
For `CN1CCC(n2cnc(-c3ccc(F)cc3)c2-c2ccnc(NCCO)n2)CC1` [SJ000573246-1, TG19207-178A1], in experiment [1], the ML-2 %inh turned out to be 6.134%. Further, the MV4-11 %inh in experiment [2] turned out to be 13.81%. Also, in experiment [3], the U937 %inh is listed as 1.73%. Also, in experiment [4], the CMK %inh was 15.99%. For the same compound, in experiment [5], the M07e %inh was 3.039%. The CHRF288-11 %inh in experiment [6] stood at 13.91%. Besides, the CMS %inh in experiment [7] was -0.04607%. Besides, the MOLM-13 %inh in experiment [8] was determined as 21.36%.
In the case of `CCCCNC(=O)NS(=O)(=O)c1ccc(C)cc1` [SJ000285613-7, TOLBUTAMIDE], in experiment [1], the ML-2 %inh was found to be 1.608%. The MV4-11 %inh in experiment [2] turned out to be 0.676%. Moreover, the U937 %inh in experiment [3] was -1.884%. The CMK %inh in experiment [4] is reported as -3.705%. Besides, the M07e %inh in experiment [5] is -0.3777%. The CHRF288-11 %inh in experiment [6] is recorded as -1.378%. Moreover, the CMS %inh in experiment [7] is given as 0.8795%. Further, the MOLM-13 %inh in experiment [8] is -1.699%.
With `O=C1NC(=NCCc2ccccc2Cl)S/C1=C\c1ccc2ncccc2c1` [SJ000581034-1], the ML-2 %inh in experiment [1] is reported as 3.879%. Moreover, the MV4-11 %inh in experiment [2] is recorded as -0.3328%. Also, the U937 %inh in experiment [3] was found to be 0.6904%. Also, the CMK %inh in experiment [4] is recorded as -2.328%. The M07e %inh in experiment [5] was 0.7717%. Also, the CHRF288-11 %inh in experiment [6] is reported as -2.34%. The CMS %inh in experiment [7] came out at 1.664%. Besides, in experiment [8], the MOLM-13 %inh stood at 1.218%.
On to `COC(=O)Nc1nc2cc(Oc3ccc(NC(=O)Nc4cccc(Br)c4)cc3)ccc2[nH]1` [SJ000573266-1, T261/62/3], for which the ML-2 %inh in experiment [1] stood at 3.598%. The MV4-11 %inh in experiment [2] stood at 65.99%. In addition, in experiment [3], the U937 %inh came out at 79.03%. Moreover, the CMK %inh in experiment [4] is 40.21%. Further, the M07e %inh in experiment [5] is given as 12.78%. Besides, in experiment [6], the CHRF288-11 %inh worked out at 12.69%. The CMS %inh in experiment [7] is reported as 26.73%. For the same compound, the MOLM-13 %inh in experiment [8] is 76.65%.
